Test results published in patent US20230225990A1, “DIMETHYL SULFONE FOR TREATMENT OF CHRONICALLY HEAT STRESSED POULTRY” (Evonik Operations GmbH, priority 2020, published 2023).
Marks after values point to notes of the source that are not given here.

Experiments:
[1] = tested on: male broilers subjected to chronic cyclic heat stress; experiment: Parameters in blood of birds sampled at d-23, d-25 and d-39; assay type: in vivo, broiler chickens (Ross 308); conditions: for GSSG/GSH / Glutathione (GSH) / Oxidized glutathione (GSSG): erythrocytes; for Glutathione peroxidase / Heat shock protein 70 / Malondialdehyde / Super oxide dismutase: plasma; for Nitric oxide / T3 (triiodothyronine) / T3/T4 / T4 (thyroxine): serum
Experimental: (§1) Sampling of one bird per pen (with weight close to average weight of the pen) on d-23, d-25 and on d-39 (on d-25 and d-39, sampling starts after >3 h of heat stress that day; 108 birds in total) • malondialdehyde, HSP70 (Chicken Heat Shock Protein 70, Hsp-70 ELISA Kit) Cusabio Code CSB-E11196Ch), HSP90 (Chicken Heat Shock Protein 90, HSP-90 ELISA Kit; Cusabio Code CSB-E12873C), GPx, SOD in plasma; GSH/GSSG in erythrocytes; and T3, T4 and nitric oxide in serum • Breast muscle and liver: malondialdehyde, AOX (GPx, SOD), GSH/GSSG
(§2) For physiological measurements, time of sampling (representing the number of minutes between the beginning of heat stress and the precise moment of sampling of the bird that day), if appropriate, was included in the model as a covariable if significant as well. Orthogonal contrasts were applied to test for linear and quadratic effects upon incremental levels of DMS supplementation in the diet. Means are given as estimated marginal means (least square means). Means were separated using the Tukey post-hoc test. Differences were considered significant when p<0.05 and as a trend for significance when p<0.1.
Heat shock protein 70 and heat shock protein 90 were determined in plasma employing the competitive inhibition enzyme immunoassay technique (HSP70, Chicken Heat Shock Protein 70, Hsp-70 ELISA Kit; Cusabio Code CSB-E11196Ch) and the quantitative sandwich enzyme immunoassay technique (HSP90, Chicken Heat Shock Protein 90, HSP-90 ELISA Kit; Cusabio Code CSB-E12873C), respectively. Regarding HSP-90 very low absorbances were found and in most cases fell below the lowest standard dilution. Values were then typically less than 0.39 ng/mL, the minimum detectable dose as mentioned in the user manual. For that reason, no data for HSP-90 could be reported here. Opposite to that, HSP-70 worked properly and values were all above sensitivity of 0.125 ng/mL. No treatments effects on HSP-70 could be perceived on either sampling day, apart from a trend for linear reduction on d-23. […] It must be noted that large variation across samples was found on d-39. Thyroxine (T4) could not be detected on d-23, while higher values were found on d-25 and d-39. A trend for linear increase on d-39 by higher DMS dose was observed. […] It means that conversion efficiency was not altered by diet. Irrespective of treatment is the sharp reduction in circulating T3 levels as birds age and thus subjected for long period to heat stress. As indicated above, this can be regarded as an adaptation to reduce body metabolism and hitherto metabolic heat production, and apparently birds fed DMS seems to be less affected. Nitric oxide was not different across treatments at any sampling day. Further, interesting changes in malondialdehyde, a marker of lipid peroxidation, were found. […] The higher GSH in DMS-fed chickens thus promotes antioxidant function and redox homeostasis. However, no relation could be established between plasma malondialdehyde and erythrocyte glutathione (FIG. 17).

[2] = tested on: male broilers subjected to chronic cyclic heat stress; experiment: Parameters in breast muscle of birds sampled at d-23, d-25 and d-39; assay type: in vivo, broiler chickens (Ross 308)
Experimental: as §1, §2

SMILES: CS(C)(=O)=O [DMS, dimethyl sulfone]
- GSSG/GSH ([1]; 0.1% DMS in diet (T2), d-23): 0.015
- Glutathione (GSH) ([1]; 0.1% DMS in diet (T2), d-23): 1.07 µmol/mL
- Oxidized glutathione (GSSG) ([1]; 0.1% DMS in diet (T2), d-23): 0.017 µmol/mL
- GSSG/GSH ([1]; 0.1% DMS in diet (T2), d-25): 0.017^a
- Glutathione (GSH) ([1]; 0.1% DMS in diet (T2), d-25): 0.59 µmol/mL
- Oxidized glutathione (GSSG) ([1]; 0.1% DMS in diet (T2), d-25): 0.010 µmol/mL
- GSSG/GSH ([1]; 0.1% DMS in diet (T2), d-39): 0.017
- Glutathione (GSH) ([1]; 0.1% DMS in diet (T2), d-39): 0.64^ab μmol/mL
- Oxidized glutathione (GSSG) ([1]; 0.1% DMS in diet (T2), d-39): 0.011 µmol/mL
- Glutathione peroxidase ([1]; 0.1% DMS in diet (T2), d-23): 0.82 U/mL
- Heat shock protein 70 ([1]; 0.1% DMS in diet (T2), d-23): 1.69 ng/mL
- Malondialdehyde ([1]; 0.1% DMS in diet (T2), d-23): 14.4 nmol/mL
- Super oxide dismutase ([1]; 0.1% DMS in diet (T2), d-23): 84.1 % inhibition
- Glutathione peroxidase ([1]; 0.1% DMS in diet (T2), d-25): 0.84 U/mL
- Heat shock protein 70 ([1]; 0.1% DMS in diet (T2), d-25): 1.07 ng/mL
- Malondialdehyde ([1]; 0.1% DMS in diet (T2), d-25): 14.3 nmol/mL
- Super oxide dismutase ([1]; 0.1% DMS in diet (T2), d-25): 81.3 % inhibition
- Glutathione peroxidase ([1]; 0.1% DMS in diet (T2), d-39): 0.97 U/mL
- Heat shock protein 70 ([1]; 0.1% DMS in diet (T2), d-39): 2.77 ng/mL
- Malondialdehyde ([1]; 0.1% DMS in diet (T2), d-39): 15.7 nmol/mL
- Super oxide dismutase ([1]; 0.1% DMS in diet (T2), d-39): 79.5 % inhibition
- Nitric oxide ([1]; 0.1% DMS in diet (T2), d-23): 6.02 µmol/L
- T3 (triiodothyronine) ([1]; 0.1% DMS in diet (T2), d-23): 2.43^a μg/L
- Nitric oxide ([1]; 0.1% DMS in diet (T2), d-25): 4.31 µmol/L
- T3 (triiodothyronine) ([1]; 0.1% DMS in diet (T2), d-25): 1.74 µg/L
- T3/T4 ([1]; 0.1% DMS in diet (T2), d-25): 0.342
- T4 (thyroxine) ([1]; 0.1% DMS in diet (T2), d-25): 0.53 µg/dL
- Nitric oxide ([1]; 0.1% DMS in diet (T2), d-39): 3.84 µmol/L
- T3 (triiodothyronine) ([1]; 0.1% DMS in diet (T2), d-39): 1.10 µg/L
- T3/T4 ([1]; 0.1% DMS in diet (T2), d-39): 0.193
- T4 (thyroxine) ([1]; 0.1% DMS in diet (T2), d-39): 0.60 µg/dL
- GSSG/GSH ([1]; 0.2% DMS in diet (T3), d-23): 0.018
- Glutathione (GSH) ([1]; 0.2% DMS in diet (T3), d-23): 1.25 µmol/mL
- Oxidized glutathione (GSSG) ([1]; 0.2% DMS in diet (T3), d-23): 0.023 µmol/mL
- GSSG/GSH ([1]; 0.2% DMS in diet (T3), d-25): 0.013^b
- Glutathione (GSH) ([1]; 0.2% DMS in diet (T3), d-25): 0.70 µmol/mL
- Oxidized glutathione (GSSG) ([1]; 0.2% DMS in diet (T3), d-25): 0.009 µmol/mL
- GSSG/GSH ([1]; 0.2% DMS in diet (T3), d-39): 0.015
- Glutathione (GSH) ([1]; 0.2% DMS in diet (T3), d-39): 0.67^a μmol/mL
- Oxidized glutathione (GSSG) ([1]; 0.2% DMS in diet (T3), d-39): 0.010 µmol/mL
- Glutathione peroxidase ([1]; 0.2% DMS in diet (T3), d-23): 0.92 U/mL
- Heat shock protein 70 ([1]; 0.2% DMS in diet (T3), d-23): 1.00 ng/mL
- Malondialdehyde ([1]; 0.2% DMS in diet (T3), d-23): 14.2 nmol/mL
- Super oxide dismutase ([1]; 0.2% DMS in diet (T3), d-23): 80.4 % inhibition
- Glutathione peroxidase ([1]; 0.2% DMS in diet (T3), d-25): 0.86 U/mL
- Heat shock protein 70 ([1]; 0.2% DMS in diet (T3), d-25): 1.08 ng/mL
- Malondialdehyde ([1]; 0.2% DMS in diet (T3), d-25): 13.2 nmol/mL
- Super oxide dismutase ([1]; 0.2% DMS in diet (T3), d-25): 84.1 % inhibition
- Glutathione peroxidase ([1]; 0.2% DMS in diet (T3), d-39): 1.09 U/mL
- Heat shock protein 70 ([1]; 0.2% DMS in diet (T3), d-39): 4.23 ng/mL
- Malondialdehyde ([1]; 0.2% DMS in diet (T3), d-39): 14.9 nmol/mL
- Super oxide dismutase ([1]; 0.2% DMS in diet (T3), d-39): 87.1 % inhibition
- Nitric oxide ([1]; 0.2% DMS in diet (T3), d-23): 6.06 µmol/L
- T3 (triiodothyronine) ([1]; 0.2% DMS in diet (T3), d-23): 2.06^b μg/L
- Nitric oxide ([1]; 0.2% DMS in diet (T3), d-25): 4.48 µmol/L
- T3 (triiodothyronine) ([1]; 0.2% DMS in diet (T3), d-25): 1.72 µg/L
- T3/T4 ([1]; 0.2% DMS in diet (T3), d-25): 0.351
- T4 (thyroxine) ([1]; 0.2% DMS in diet (T3), d-25): 0.50 µg/dL
- Nitric oxide ([1]; 0.2% DMS in diet (T3), d-39): 3.14 µmol/L
- T3 (triiodothyronine) ([1]; 0.2% DMS in diet (T3), d-39): 1.12 µg/L
- T3/T4 ([1]; 0.2% DMS in diet (T3), d-39): 0.180
- T4 (thyroxine) ([1]; 0.2% DMS in diet (T3), d-39): 0.63 µg/dL
- Glutathione (GSH) ([2]; 0.1% DMS in diet (T2), d-23): 1.00 µmol/g
- Glutathione peroxidase ([2]; 0.1% DMS in diet (T2), d-23): 0.39 U/g
- Malondialdehyde ([2]; 0.1% DMS in diet (T2), d-23): 4.72 nmol/g
- Super oxide dismutase ([2]; 0.1% DMS in diet (T2), d-23): 29.7 U/g
- Glutathione (GSH) ([2]; 0.1% DMS in diet (T2), d-25): 1.30^ab μmol/g
- Glutathione peroxidase ([2]; 0.1% DMS in diet (T2), d-25): 0.42 U/g
- Malondialdehyde ([2]; 0.1% DMS in diet (T2), d-25): 4.6 nmol/g
- Super oxide dismutase ([2]; 0.1% DMS in diet (T2), d-25): 27.3 U/g
- Glutathione (GSH) ([2]; 0.1% DMS in diet (T2), d-39): 1.46 µmol/g
- Glutathione peroxidase ([2]; 0.1% DMS in diet (T2), d-39): 0.46 U/g
- Malondialdehyde ([2]; 0.1% DMS in diet (T2), d-39): 5.23 nmol/g
- Super oxide dismutase ([2]; 0.1% DMS in diet (T2), d-39): 27.4 U/g
- Glutathione (GSH) ([2]; 0.2% DMS in diet (T3), d-23): 1.10 µmol/g
- Glutathione peroxidase ([2]; 0.2% DMS in diet (T3), d-23): 0.38 U/g
- Malondialdehyde ([2]; 0.2% DMS in diet (T3), d-23): 4.5 nmol/g
- Super oxide dismutase ([2]; 0.2% DMS in diet (T3), d-23): 32.6 U/g
- Glutathione (GSH) ([2]; 0.2% DMS in diet (T3), d-25): 1.39^a μmol/g
- Glutathione peroxidase ([2]; 0.2% DMS in diet (T3), d-25): 0.44 U/g
- Malondialdehyde ([2]; 0.2% DMS in diet (T3), d-25): 4.5 nmol/g
- Super oxide dismutase ([2]; 0.2% DMS in diet (T3), d-25): 28.1 U/g
- Glutathione (GSH) ([2]; 0.2% DMS in diet (T3), d-39): 1.56 µmol/g
- Glutathione peroxidase ([2]; 0.2% DMS in diet (T3), d-39): 0.50 U/g
- Malondialdehyde ([2]; 0.2% DMS in diet (T3), d-39): 5.57 nmol/g
- Super oxide dismutase ([2]; 0.2% DMS in diet (T3), d-39): 26.2 U/g
